Reference: ChEMBL document CHEMBL3739321, “Multicomponent reaction-based synthesis and biological evaluation of tricyclic heterofused quinolines with multi-trypanosomatid activity” (Eur J Med Chem, 2015)

Experiments:
[1] = system: Leishmania infantum; test: Potency index, ratio of potassium antimony (III) tartarate hydrate IC50 to compound IC50 for promastigote stage of Leishmania infantum MCAN/ES/92/BCN722; type: functional
[2] = system: Trypanosoma brucei; test: Potency index, ratio of nifurtimox IC50 to compound IC50 for bloodstream form of Trypanosoma brucei 221; type: functional
[3] = system: Trypanosoma cruzi; test: Potency index, ratio of benzanidazole IC50 to compound IC50 for epimastigote stage of Trypanosoma cruzi MHOM/ES/2203/BCN590; type: functional
[4] = molecular target: Leishmania infantum; test: Leishmanicidal activity against promastigote stage of Leishmania infantum MCAN/ES/92/BCN722 after 48 hrs by acid phosphatase based assay; type: functional, organism-based
[5] = system: L6; test: Cytotoxicity against rat L6 cells after 6 days by resazurin staining based fluorescence plate reader assay; type: cell-based
[6] = Selectivity index, ratio of IC50 for rat L6 cells to IC50 for promastigote stage of Leishmania infantum MCAN/ES/92/BCN722; type: toxicity, cell-based

Compound | Ratio IC50 [1] | Ratio IC50 [2] | other results
N#Cc1ccc(-c2nc3cc(Cl)ccc3c3c2CCCN3)cc1 | <=5 |  | 
NCc1ccc(-c2nc3ccc(Cl)cc3c3c2CCCN3)cc1 | <=5 | 2 | 
NCc1ccc(-c2nc3cc(Cl)ccc3c3c2CCCN3)cc1 | <=5 | 2 | 
NCc1ccc(-c2nc3ccc(Cl)cc3c3c2CCCN3Cc2ccccc2)cc1 | <=5 | 2 | Ratio IC50 [3]: 4
Clc1ccc2nc(-c3cccs3)c3c(c2c1)OCCC3 | <=5 |  | 
POTASSIUM ANTIMONYL TARTRATE TRIHYDRATE |  |  | IC50 [4]: 24.3 µM; IC50 [5]: 3.27 µM; Ratio IC50 [6]: 0.1
NCc1ccc(-c2nc3ccc(Cl)cc3c3c2CCCCN3)cc1 | <=5 | 2 | 
N#Cc1ccc(-c2nc3ccc(Cl)cc3c3c2CCCO3)cc1 | <=5 |  | 
CCN(CC)CCCc1cc2cc(Cl)ccc2nc1-c1cccs1 | <=5 |  | 
N#Cc1ccc(-c2nc3ccc(Cl)cc3c3c2CCN3)cc1 | <=5 |  | 
Clc1ccc2nc(-c3cccs3)c(CCCN3CCCC3)cc2c1 | <=5 |  | 
N#Cc1ccc(-c2nc3ccc(Cl)cc3c3c2CCCN3)cc1 | <=5 |  | 
N#Cc1ccc(-c2nc3cc(Cl)ccc3cc2CCCN)cc1 | <=5 |  | 
OCCCc1cc2cc(Cl)ccc2nc1-c1cccs1 | <=5 |  | 
N#Cc1ccc(-c2nc3ccc(Cl)cc3c3c2CCCCN3)cc1 | <=5 |  | 
NCc1ccc2nc(-c3ccc(Cl)cc3)c3c(c2c1)N(Cc1ccccc1)CCC3 | <=5 | 2 | 
NCc1ccc(-c2nc3ccc(Cl)cc3c3c2CCN3)cc1 | <=5 | 2 | 
N#CCCc1cc2cc(Cl)ccc2nc1-c1cccs1 | <=5 |  | 
NCc1ccc(-c2nc3ccc(Cl)cc3c3c2CCCO3)cc1 | <=5 | 2 | 
OCCCc1cc2cc(Cl)ccc2nc1-c1ccco1 | <=5 |  | 
N#Cc1ccc([C@H]2Nc3ccc(Cl)cc3[C@@H]3OCCC[C@H]23)cc1 | <=5 |  | 
Clc1ccc2nc(-c3ccco3)c3c(c2c1)OCCC3 | <=5 |  | 
